Data on 80 compounds can be found in the METLIN SMRT retention time set (Domingo-Almenara et al. 2019).

The series in a line: gradient 5% acetonitrile 3 min, to 50% in 2 min, to 85% in 15 min, held 3 min, 100 µL/min. To be noted: column: Zorbax Extend-C18 2.1 x 50 mm; eluents: water / acetonitrile, 0.1% formic acid. The method, boiled down:
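A Zorbax Extend-C18 column (2.1 × 50 mm, 1.8 μm) run at 100 μL/min with water and acetonitrile, both containing 0.1% formic acid, separated mixtures of ~100 pure standards. The HPLC was coupled to a quadrupole time-of-flight mass spectrometer operated in positive and negative ionization mode, with dead and dwell volumes of 40 μL and 900 μL. Each retention time was taken from a computationally picked adduct peak that was then manually inspected.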
In the case of `CCCN1C(=O)COc2ccc(-c3csc(NC(=O)COC)n3)cc21`, the RP-LC retention time turned out to be 823 s. `CCN(CC)CCNCc1ccc(-c2ccc(OC)c(Cl)c2)o1` showed an RP-LC retention time of 566 s. To `Cc1noc(C)c1S(=O)(=O)NCC1CCN(S(=O)(=O)C2CC2)CC1` belongs 709 s; to `COc1ccc(C(=O)N2CCC3(C2)C(=O)Nc2ccc(OC)cc23)c(OC)c1` (stereo not given), 692 s; to `CCN1c2ccc(C)cc2C(=O)NC12CCN(C(=O)c1cc(F)cc(F)c1)CC2`, 858 s. `CCc1ccc(S(=O)(=O)N2CCCC(Cn3cnc4cccnc43)C2)cc1` (stereo not given) came in with an RP-LC retention time of 774 s. Then `CC1=NS(=O)(=O)N(C)C=C1C(=O)OCc1cc(F)ccc1F`, with 935 s. Compound `Cc1cnc(C(=O)N2CCC(c3noc(-c4ccncc4)n3)C2)cn1` (stereo not given) had an RP-LC retention time of 645 s. To `COc1ccc(NC(=O)N(C)CC2CCOCC2)cc1F` belongs 682 s. To `COCc1nc2cccnc2n1C1CCN(C(=O)Nc2ccccc2C(=O)OC)CC1` belongs 784 s. As for `Cc1nc(N2CCN(c3ccccn3)CC2)nc2c1C(=O)CC(/C=C/c1ccccc1)C2` (stereo not given), the RP-LC retention time was 856 s. Then `CC(C)NC(=O)c1ccc2c(c1)CCCN2C(=O)c1ccc(F)cc1`, with 784 s; and `CCOC(=O)C1=C(CN(C)Cc2ccccc2)NC(=O)NC1c1cccs1` (stereo not given), with 642 s. Then `CN(C)C(CNC(=O)c1cc(-c2ccc3c(c2)OCCO3)on1)c1ccc(F)cc1` (stereo not given), with 681 s; and `Cc1[nH]c2ccccc2c1C(=O)CSc1nnc2sc3ccccc3n12`, with 829 s. To `CCN(CC)CCNC(=O)C(C)n1c2ccccc2c2cnn(C)c(=O)c21` (stereo not given) belongs 609 s; to `COCCn1cc2c3c(cccc31)CN(C(=O)NCc1ccc(OC)cc1)CC2`, 822 s. Compound `CC(C)(C)c1ccc(C(=O)Nc2nnc(-c3ccccn3)o2)cc1` displayed an RP-LC retention time of 751 s. `CN(CC1CCOC1)S(=O)(=O)Cc1cccc(Cl)c1` (stereo not given) came in with an RP-LC retention time of 804 s. To `Cc1c(-c2noc(-c3ccc4cc[nH]c4c3)n2)nnn1-c1ccc(F)cc1` belongs 996 s; to `CN(CC1(C)CCOCC1)C(=O)c1ccccc1Br`, 806 s; to `Cc1cccc(CNC(=O)c2cc(N(C)C)n3nccc3n2)c1`, 840 s.

As to `Cc1noc(C)c1CN1CCC(NC(=O)Cc2ccc(F)cc2)CC1`, the RP-LC retention time amounted to 582 s.

`COC1CCC12CCN(S(=O)(=O)c1ccc(F)c(C)c1)CC2` (stereo not given): the RP-LC retention time is 1030 s.

As to `CN(C)C[C@@H]1CN(c2ncccn2)C[C@H]1NS(=O)(=O)c1ccc(C#N)cc1`, the RP-LC retention time stood at 589 s.

In turn, `COc1ccccc1N1CCN(CC(O)COc2cccc3ccccc23)CC1` (stereo not given) had an RP-LC retention time of 838 s. `CC(C)NC(=O)c1ccc(OCC2CCN(C(=O)c3cccs3)CC2)cc1` showed an RP-LC retention time of 757 s.

In turn, `Cc1nnc(-c2cccnc2N2CCN(C(=O)CC3CCCC3)CC2)o1` had an RP-LC retention time of 728 s. Consider `COCCc1noc(-c2nc(-c3ccc(C)cc3)no2)n1`, for which the RP-LC retention time stood at 1120 s. Then `CCOc1ccc(-c2nc(NC(=O)Cc3csc(COc4cc(C)ccc4C)n3)sc2C)cc1`, with 1350 s; and `Cc1cc2nn(CC(=O)Nc3ccc(F)cc3Cl)c(=O)n2c(Nc2ccccc2)n1`, with 1030 s. To `Cc1nc(-c2ccccc2Cl)sc1C(=O)N1CCN(c2ccccn2)CC1` belongs 661 s; to `COc1ccc(CNC(=O)c2cnc3c(c2)c(=O)n(C)c(=O)n3-c2ccc(OC)cc2)cc1`, 841 s; to `COc1cccc(-n2ccn3cc(-c4ccc5c(c4)OCO5)nc3c2=O)c1`, 775 s. Then `O=C(Nc1ccccc1F)N1CCCC1c1nc(-c2cccc(Cl)c2)no1` (stereo not given), with 1060 s; and `CCCc1cc(C2CCCN2C(=O)Cc2ccc(OC)c(OC)c2)no1` (stereo not given), with 760 s. In the case of `CC(C)c1ccc(S(=O)(=O)N2CCC(C(=O)NCc3cscn3)CC2)cc1`, the RP-LC retention time was found to be 805 s. Then `Cc1sc(C)c(S(=O)(=O)NCC(C)c2ccccc2)c1-c1cc(C(F)(F)F)on1` (stereo not given), with 1250 s; and `COC(=O)c1cccc(NS(=O)(=O)c2cc3n(c2)CCCNC3=O)c1`, with 641 s. Then `Cc1ccc(CNC(=O)C2CCN(S(=O)(=O)c3ccc4c(c3)CCCC(=O)N4)CC2)cc1`, with 752 s. For the compound `CC(C(=O)Nc1cccc(Cl)c1)C1CCN(C(=O)Nc2ccc(F)cc2)CC1` (stereo not given), the RP-LC retention time was determined as 933 s. To `Cc1ccc(CN2CCC[C@H]2c2nc(C3CCOCC3)n[nH]2)c(C)c1` belongs 590 s.

`COc1cccc(-c2noc(Cc3nnc(-c4ccc(C)c(F)c4)o3)n2)c1OC` displayed an RP-LC retention time of 1010 s. Compound `CCCn1cc(C(=O)NCCC2=CCCCC2)c2nn(-c3ccccc3)c(=O)c-2c1` registered an RP-LC retention time of 1090 s.

As to `O=C(Nc1cccn2nc(C3CCC3)nc12)C1CCCO1` (stereo not given), the RP-LC retention time was 774 s. Consider `O=C(Nc1cccc(F)c1)c1csc(-c2ccc(N3CCCC3)nc2)n1`, for which the RP-LC retention time was 772 s. In turn, `CC(=O)N1CCCc2cc(S(=O)(=O)N3CCC(C(=O)NCc4ccccn4)CC3)ccc21` returned an RP-LC retention time of 607 s. To `CC1CCN(C(=O)C2=NN(Cc3ccccc3)c3ccccc3S2(=O)=O)CC1` belongs 1010 s. To `O=c1ccc(S(=O)(=O)N2CCCCCC2)cn1Cc1ccccc1F` belongs 936 s.

Compound `Cc1ccccc1-n1ncc2c(C)nn(CC(=O)Nc3cccc(C(F)(F)F)c3)c(=O)c21` returned an RP-LC retention time of 941 s. On to `O=[N+]([O-])c1cccc(-c2nnc3c4cnn(-c5ccc(F)cc5)c4ncn23)c1`, for which the RP-LC retention time stood at 1080 s. For `O=C(Cn1nc(S(=O)(=O)c2cccc(F)c2)ccc1=O)N1CCN(c2ccccc2)CC1`, the RP-LC retention time turned out to be 802 s.

As for `Cc1ccc(Cn2c(=O)n(CCNC(=O)Cc3ccsc3)c3ncccc32)cc1`, the RP-LC retention time was 824 s.

With `Cc1nc(-c2ccc(NC(=O)N3CCCc4ccccc43)cc2)no1`, the RP-LC retention time was determined as 900 s. Then `O=C(Oc1coc(CSc2ncccn2)cc1=O)c1ccco1`, with 667 s. Then `CCCCCCN1CCN(c2cccc(Cl)c2)CC1`, with 737 s; and `CC1(C)COCN1S(=O)(=O)c1ccc(C(=O)Nc2nnc(-c3ccc(F)cc3)o2)cc1`, with 811 s; and `c1ccc(CCc2nc(-c3ccc4c(c3)nnn4CCN3CCOCC3)no2)cc1`, with 687 s. `Cc1cc(Cl)ccc1NC(=O)CCc1c(C)nn(-c2cc(N(C)C)ncn2)c1C`: the RP-LC retention time was determined as 862 s. Then `CCCC(=O)Nc1ccc2c(c1)N(C(=O)c1ccco1)CCC2`, with 604 s; and `COc1ccccc1-n1ccn(Cc2nc(-c3ccc(C(C)(C)C)cc3)no2)c(=O)c1=O`, with 1020 s; and `O=C(c1ccnc(N2CCNC(c3ccccc3)C2)c1)N1CCN(c2ncccn2)CC1` (stereo not given), with 608 s. Then `Cc1ccc(-n2nc(C)c3nc(CCC(=O)N4CCN(c5ccccn5)CC4)c(=O)n(C)c32)cc1`, with 627 s; and `Cc1ccc(NC(=O)C2(C)Oc3cccnc3NC2=O)c(C)c1` (stereo not given), with 727 s; and `O=C(CSc1nc2ccsc2c(=O)n1-c1ccccc1)Nc1ncn[nH]1`, with 655 s.

The compound `O=C(O)C1CCN(c2nc3ccc(-c4cccs4)nc3s2)CC1` displayed an RP-LC retention time of 837 s.

For the compound `Cc1nc2nc(-c3ccccc3)nn2c(C)c1CC(=O)N1CCC(C)CC1`, the RP-LC retention time came to 846 s. Consider `COc1ccc(OC)c(NC(=O)Cn2c(=O)nc(NC3CCCC3)c3ccccc32)c1`, for which the RP-LC retention time worked out at 740 s. Then `CCN1c2ccc(C)cc2C(=O)NC12CCN(C(=O)c1cc(OC)cc(OC)c1)CC2`, with 828 s; and `Cc1nc(C2CN(S(=O)(=O)c3c(C)c(C)cc(C)c3C)CC23CCOCC3)no1` (stereo not given), with 1020 s. Then `O=C(CCn1c(N2CCCC2)nc2ccsc2c1=O)N1CCN(c2ccccc2F)CC1`, with 849 s. Then `Cc1ccc(CN2CCN(C3CCN(C(=O)Nc4ccc(F)c(Cl)c4)CC3)C(=O)C2=O)cc1`, with 849 s; and `Cc1ccc(S(=O)(=O)N2CCC(C)(C(=O)NCc3ccc(F)cc3)CC2)cc1`, with 942 s; and `O=C(NC1CC1)c1ccc2c(c1)CCN2C(=O)C1CC1`, with 673 s.

Compound `COc1cccc(-n2c(N3CCCC(C(=O)NC4CCCC4)C3)nc3ccsc3c2=O)c1` (stereo not given) came in with an RP-LC retention time of 818 s. To `COc1ccc(-c2csc3ncnc(SCc4c(C)noc4C)c23)cc1` belongs 1030 s. Compound `Cc1ccc(S(=O)(=O)N2CCC3(CC2)OCCS3)s1` yielded an RP-LC retention time of 906 s. Then `Cc1ccc(-c2nocc2CCC(=O)O)cc1`, with 748 s. Compound `CC(C)Sc1cc2c(cc1NC(=O)Cc1cccc(F)c1)n(C)c(=O)n2C` showed an RP-LC retention time of 987 s. `O=C(Cn1nc2c3cc(-c4ccc(F)cc4)nn3ccn2c1=O)Nc1ccc(F)cc1`: the RP-LC retention time was 888 s.
